{
  "source": "patent US8912329B2",
  "about": "(priority 2009, dated 2014)",
  "key": {"[1]": {"settings": "250 mg oral; cited from earlier work"}, "[2]": {"test_system": "Mycobacterium tuberculosis laboratory strain H37Rv", "assay": "Growth inhibition / drug susceptibility testing of M. tuberculosis with MGIT 960 system, compounds combined with ethionamide", "assay_type": "cell-based", "parameters": "key to growth inhibition of M. tuberculosis H37Rv (R/I/S): R: Resistance, no effect of combinatorial drug application; I: intermediate; S: sensitive"}, "EthR-VP16": {"target": "EthR-VP16 (Mycobacterium bovis, UniProt Q7TVI1)", "sequence (Q7TVI1 whole entry, looked up)": "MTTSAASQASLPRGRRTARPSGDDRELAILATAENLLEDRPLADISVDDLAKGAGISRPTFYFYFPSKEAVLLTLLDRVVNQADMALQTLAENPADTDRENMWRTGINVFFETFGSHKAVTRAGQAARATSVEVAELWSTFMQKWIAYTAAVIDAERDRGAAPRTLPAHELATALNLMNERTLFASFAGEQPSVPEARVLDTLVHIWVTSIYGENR", "assay": "cell-based", "parameters": "species or system M. bovis", "settings": "48 h, read-out: % EthR activity (w/o = 100%); ± std. dev. of the mean (n = 3)"}},
  "data": [
    {"molecule": "CCc1cc(C(N)=S)ccn1", "note": "[Ethionamide, 2-ethylthioiso-nicotinamide, reference compound]", "values": [
      {"measurement": "cmax", "setting": "[1]", "value": 2, "unit": "µg/mL"},
      {"measurement": "t1/2", "setting": "[1]", "value": 2, "unit": "h"},
      {"measurement": "growth inhibition of M. tuberculosis H37Rv (R/I/S)", "setting": "[2]; ethionamide 0.16 μg/ml alone (Example compound 0 μM)", "value": "R"},
      {"measurement": "growth inhibition of M. tuberculosis H37Rv (R/I/S)", "setting": "[2]; ethionamide 0.31 μg/ml alone (Example compound 0 μM)", "value": "R"},
      {"measurement": "growth inhibition of M. tuberculosis H37Rv (R/I/S)", "setting": "[2]; ethionamide 0.625 μg/ml alone (Example compound 0 μM)", "value": "R"},
      {"measurement": "growth inhibition of M. tuberculosis H37Rv (R/I/S)", "setting": "[2]; ethionamide 1.25 μg/ml alone (Example compound 0 μM)", "value": "R"},
      {"measurement": "growth inhibition of M. tuberculosis H37Rv (R/I/S)", "setting": "[2]; ethionamide 2.5 μg/ml alone (Example compound 0 μM)", "value": "I"},
      {"measurement": "growth inhibition of M. tuberculosis H37Rv (R/I/S)", "setting": "[2]; ethionamide 5 μg/ml alone (Example compound 0 μM)", "value": "S"}
    ]},
    {"molecule": "O=C(COc1ccc(F)cc1)N1CCC(c2ccccc2)C1", "note": "(centres unmarked) [Example 15, 2-(4-Fluorophenoxy)-1-(3-phenylpyrrolidin-1-yl)ethan-1-one]", "values": [
      {"measurement": "growth inhibition of M. tuberculosis H37Rv (R/I/S)", "setting": "[2]; Example compound 0.5 μM + ethionamide 0.16 μg/ml", "value": "R"},
      {"measurement": "growth inhibition of M. tuberculosis H37Rv (R/I/S)", "setting": "[2]; Example compound 0.5 μM + ethionamide 0.31 μg/ml", "value": "R"},
      {"measurement": "growth inhibition of M. tuberculosis H37Rv (R/I/S)", "setting": "[2]; Example compound 0.5 μM + ethionamide 0.625 μg/ml", "value": "I"},
      {"measurement": "growth inhibition of M. tuberculosis H37Rv (R/I/S)", "setting": "[2]; Example compound 0.5 μM + ethionamide 1.25 μg/ml", "value": "S"},
      {"measurement": "growth inhibition of M. tuberculosis H37Rv (R/I/S)", "setting": "[2]; Example compound 0.5 μM + ethionamide 2.5 μg/ml", "value": "S"},
      {"measurement": "growth inhibition of M. tuberculosis H37Rv (R/I/S)", "setting": "[2]; Example compound 0.5 μM + ethionamide 5 μg/ml", "value": "S"},
      {"measurement": "growth inhibition of M. tuberculosis H37Rv (R/I/S)", "setting": "[2]; Example compound 0.5 μM, ethionamide 0 μg/ml", "value": "R"},
      {"measurement": "growth inhibition of M. tuberculosis H37Rv (R/I/S)", "setting": "[2]; Example compound 1.5 μM + ethionamide 0.16 μg/ml", "value": "R"},
      {"measurement": "growth inhibition of M. tuberculosis H37Rv (R/I/S)", "setting": "[2]; Example compound 1.5 μM + ethionamide 0.31 μg/ml", "value": "I"},
      {"measurement": "growth inhibition of M. tuberculosis H37Rv (R/I/S)", "setting": "[2]; Example compound 1.5 μM + ethionamide 0.625 μg/ml", "value": "I"},
      {"measurement": "growth inhibition of M. tuberculosis H37Rv (R/I/S)", "setting": "[2]; Example compound 1.5 μM + ethionamide 1.25 μg/ml", "value": "S"},
      {"measurement": "growth inhibition of M. tuberculosis H37Rv (R/I/S)", "setting": "[2]; Example compound 1.5 μM + ethionamide 2.5 μg/ml", "value": "S"},
      {"measurement": "growth inhibition of M. tuberculosis H37Rv (R/I/S)", "setting": "[2]; Example compound 1.5 μM + ethionamide 5 μg/ml", "value": "S"},
      {"measurement": "growth inhibition of M. tuberculosis H37Rv (R/I/S)", "setting": "[2]; Example compound 1.5 μM, ethionamide 0 μg/ml", "value": "R"},
      {"measurement": "growth inhibition of M. tuberculosis H37Rv (R/I/S)", "setting": "[2]; Example compound 4.5 μM + ethionamide 0.16 μg/ml", "value": "R"},
      {"measurement": "growth inhibition of M. tuberculosis H37Rv (R/I/S)", "setting": "[2]; Example compound 4.5 μM + ethionamide 0.31 μg/ml", "value": "I"},
      {"measurement": "growth inhibition of M. tuberculosis H37Rv (R/I/S)", "setting": "[2]; Example compound 4.5 μM + ethionamide 0.625 μg/ml", "value": "S"},
      {"measurement": "growth inhibition of M. tuberculosis H37Rv (R/I/S)", "setting": "[2]; Example compound 4.5 μM + ethionamide 1.25 μg/ml", "value": "S"},
      {"measurement": "growth inhibition of M. tuberculosis H37Rv (R/I/S)", "setting": "[2]; Example compound 4.5 μM + ethionamide 2.5 μg/ml", "value": "S"},
      {"measurement": "growth inhibition of M. tuberculosis H37Rv (R/I/S)", "setting": "[2]; Example compound 4.5 μM + ethionamide 5 μg/ml", "value": "S"},
      {"measurement": "growth inhibition of M. tuberculosis H37Rv (R/I/S)", "setting": "[2]; Example compound 4.5 μM, ethionamide 0 μg/ml", "value": "R"},
      {"measurement": "growth inhibition of M. tuberculosis H37Rv (R/I/S)", "setting": "[2]; Example compound 13.5 μM + ethionamide 0.16 μg/ml", "value": "R"},
      {"measurement": "growth inhibition of M. tuberculosis H37Rv (R/I/S)", "setting": "[2]; Example compound 13.5 μM + ethionamide 0.31 μg/ml", "value": "I"},
      {"measurement": "growth inhibition of M. tuberculosis H37Rv (R/I/S)", "setting": "[2]; Example compound 13.5 μM + ethionamide 0.625 μg/ml", "value": "S"},
      {"measurement": "growth inhibition of M. tuberculosis H37Rv (R/I/S)", "setting": "[2]; Example compound 13.5 μM + ethionamide 1.25 μg/ml", "value": "S"},
      {"measurement": "growth inhibition of M. tuberculosis H37Rv (R/I/S)", "setting": "[2]; Example compound 13.5 μM + ethionamide 2.5 μg/ml", "value": "S"},
      {"measurement": "growth inhibition of M. tuberculosis H37Rv (R/I/S)", "setting": "[2]; Example compound 13.5 μM + ethionamide 5 μg/ml", "value": "S"},
      {"measurement": "growth inhibition of M. tuberculosis H37Rv (R/I/S)", "setting": "[2]; Example compound 13.5 μM, ethionamide 0 μg/ml", "value": "R"},
      {"measurement": "growth inhibition of M. tuberculosis H37Rv (R/I/S)", "setting": "[2]; Example compound 40.5 μM + ethionamide 0.16 μg/ml", "value": "R"},
      {"measurement": "growth inhibition of M. tuberculosis H37Rv (R/I/S)", "setting": "[2]; Example compound 40.5 μM + ethionamide 0.31 μg/ml", "value": "I"},
      {"measurement": "growth inhibition of M. tuberculosis H37Rv (R/I/S)", "setting": "[2]; Example compound 40.5 μM + ethionamide 0.625 μg/ml", "value": "S"},
      {"measurement": "growth inhibition of M. tuberculosis H37Rv (R/I/S)", "setting": "[2]; Example compound 40.5 μM + ethionamide 1.25 μg/ml", "value": "S"},
      {"measurement": "growth inhibition of M. tuberculosis H37Rv (R/I/S)", "setting": "[2]; Example compound 40.5 μM + ethionamide 2.5 μg/ml", "value": "S"},
      {"measurement": "growth inhibition of M. tuberculosis H37Rv (R/I/S)", "setting": "[2]; Example compound 40.5 μM + ethionamide 5 μg/ml", "value": "S"},
      {"measurement": "growth inhibition of M. tuberculosis H37Rv (R/I/S)", "setting": "[2]; Example compound 40.5 μM, ethionamide 0 μg/ml", "value": "R"},
      {"measurement": "growth inhibitory effect of compound alone on M. tuberculosis H37Rv", "setting": "[2]; compound alone, without ethionamide", "value": "do not show any growth inhibitory effect"},
      {"measurement": "growth of M. tuberculosis H37Rv in the presence of sub-inhibitory ethionamide concentrations", "setting": "[2]; ethionamide 0.16 and 5 μg/ml, 0.5 to 40.5 μMol compound", "value": "dose-dependently inhibited"},
      {"measurement": "remaining activity at 0.5 µM", "setting": "EthR-VP16", "value": "10.3 ± 1.26", "unit": "%"},
      {"measurement": "remaining activity at 1.5 µM", "setting": "EthR-VP16", "value": "10.3 ± 0.43", "unit": "%"},
      {"measurement": "remaining activity at 3 µM", "setting": "EthR-VP16", "value": "7.81 ± 0.95", "unit": "%"},
      {"measurement": "remaining activity at 6 µM", "setting": "EthR-VP16", "value": "6.01 ± 1.93", "unit": "%"},
      {"measurement": "remaining activity at 15 µM", "setting": "EthR-VP16", "value": "3.21 ± 1.35", "unit": "%"},
      {"measurement": "remaining activity at 30 µM", "setting": "EthR-VP16", "value": "0.77 ± 0.32", "unit": "%"},
      {"measurement": "remaining activity at 60 µM", "setting": "EthR-VP16", "value": "0.86 ± 0.36", "unit": "%"},
      {"measurement": "remaining activity at 300 µM", "setting": "EthR-VP16", "value": "0.89 ± 0.37", "unit": "%"}
    ]}
  ]
}
